According to US8178506B2, “Oligomeric compounds and compositions for use in modulation of small non-coding RNAs” (Regulus Therapeutics Inc., priority 2003, dated 2012):
In the oligonucleotide strings, read from the 5' end, every base follows the letter of its sugar. An asterisk marks phosphorothioate; unmarked linkages are phosphodiester. Other units and linkages are bracketed, terminal groups are in braces. A string of capitals states the bases alone. e = 2'-O-(2-methoxyethyl) (MOE); [5mC] = 5-methylcytosine; d = 2'-deoxy (DNA)

Key:
[1] = tested on: IL-12 mRNA; assay: IL-12 mRNA in LPS-activated primary murine macrophages; assay type: cell-based, mouse; details: for IL-12 mRNA expression, −IFN % UTC: 300 nM oligomeric compound and LPS, no IFN-gamma pretreatment, single experiment; for IL-12 mRNA expression, −IFN % UTC / IL-12 mRNA expression, +IFN % UTC: normalized to LPS-treated cells without oligomeric compound; for IL-12 mRNA expression, +IFN % UTC: 300 nM oligomeric compound, stimulation with IFN-gamma and LPS, average of 2 experiments; for IL-12 mRNA expression, % UTC: LPS, average of 3 treatments
[2] = tested on: BJ, B16-F10, T47D, T47Dp53 and HeLa cells; assay: Cell cycle assay (propidium iodide flow cytometry), cell line panel; assay type: cell-based; details: 150 nM oligomeric compound, 4.5 μg/ml LIPOFECTIN, after 72 hours, propidium iodide flow cytometry

Substance	IL-12 mRNA expression, −IFN % UTC [1]	IL-12 mRNA expression, +IFN % UTC [1]	G1 (percentage of cells in phase of the cell cycle) [2]	G2/M (percentage of cells in phase of the cell cycle) [2]	S (percentage of cells in phase of the cell cycle) [2]	SubG1 (percentage of cells in phase of the cell cycle) [2]	aneuploid (percentage of cells) [2]	other results
328110 (antisense eG*eA*eT*eA*eA*eA*eG*e[5mC]*e[5mC]*eA*eA*eT*eA*eA*eA*e[5mC]*eT*eG*eT*e[5mC]*eA) [compound 328110]	221 % UTC	8 % UTC	–	–	–	–	–	–
327910 (antisense eT*eG*eA*eT*eA*eG*e[5mC]*e[5mC]*e[5mC]*eT*eG*eT*eA*e[5mC]*eA*eA*eT*eG*e[5mC]*eT*eG*e[5mC]*eT) [compound 327910]	–	–	49.5%	17.5%	33%	9.3%	13.1%	–
327887 (antisense eG*e[5mC]*eG*eA*e[5mC]*e[5mC]*eA*eT*eG*eG*e[5mC]*eT*eG*eT*eA*eG*eA*e[5mC]*eT*eG*eT*eT*eA) [compound 327887]	287 % UTC	33 % UTC	–	–	–	–	–	–
327876 (antisense eA*eA*e[5mC]*eA*e[5mC]*eT*eG*eA*eT*eT*eT*e[5mC]*eA*eA*eA*eT*eG*eG*eT*eG*e[5mC]*eT*eA) [compound 327876]	194 % UTC	9 % UTC	–	–	–	–	–	–
327933 (antisense eA*eA*eG*eG*eG*eA*eT*eT*e[5mC]*e[5mC]*eT*eG*eG*eG*eA*eA*eA*eA*e[5mC]*eT*eG*eG*eA*e[5mC]) [compound 327933]	–	–	49.6%	19.1%	31.3%	10.2%	15.9%	–
342673 (antisense eA*eG*eA*e[5mC]*eT*eA*eG*e[5mC]*eG*eG*eT*eA*eT*e[5mC]*eT*eT*eT*eA*eT*e[5mC]*e[5mC]*e[5mC]) [compound 342673]	91 % UTC	–	–	–	–	–	–	–
327927 (antisense eT*eG*eT*eA*eA*eA*e[5mC]*e[5mC]*eA*eT*eG*eA*eT*eG*eT*eG*e[5mC]*eT*eG*e[5mC]*eT*eA) [compound 327927]	164 % UTC	33 % UTC	–	–	–	–	–	–
341800 (antisense AAGCCCAAAAGGAGAAUUCUUUG; all 2'-MOE, all phosphorothioate, methylation of C and T or U not given here) [compound 341800]	180 % UTC	100 % UTC	–	–	–	–	–	–
328105 (antisense e[5mC]*e[5mC]*eT*e[5mC]*eA*eA*eT*eT*eA*eT*eT*eG*eG*eA*eA*eA*eT*e[5mC]*eA*e[5mC]*eA) [compound 328105]	108 % UTC	57 % UTC	–	–	–	–	–	–
327906 (antisense eT*e[5mC]*eA*eT*eA*eG*e[5mC]*e[5mC]*e[5mC]*eT*eG*eT*eA*e[5mC]*eA*eA*eT*eG*e[5mC]*eT*eG*e[5mC]*eT) [compound 327906]	–	–	46.1%	20.9%	33%	15.2%	15.8%	–
327913 (antisense eA*eA*e[5mC]*e[5mC]*eG*eA*eT*eT*eT*e[5mC]*eA*eA*eA*eT*eG*eG*eT*eG*e[5mC]*eT*eA*eG) [compound 327913]	276 % UTC	73 % UTC	–	–	–	–	–	–
327923 (antisense eG*eA*eA*eA*eG*eA*eG*eA*e[5mC]*e[5mC]*eG*eG*eT*eT*e[5mC]*eA*e[5mC]*eT*eG*eT*eG*eA) [compound 327923]	269 % UTC	134 % UTC	–	–	–	–	–	–
328362 (eT*eG*eT*eG*eT*dT*dT*dT*d[5mC]*dT*dG*dA*d[5mC]*dT*d[5mC]*eA*eG*eT*e[5mC]*eA) [compound 328362]	–	–	51.2%	15.1%	33.6%	9.1%	12.9%	–
327904 (antisense eA*e[5mC]*eT*e[5mC]*eA*e[5mC]*e[5mC]*eG*eA*e[5mC]*eA*eG*e[5mC]*eG*eT*eT*eG*eA*eA*eT*eG*eT*eT) [compound 327904]	–	–	54.4%	16.2%	29.5%	8.6%	15.6%	–
327951 (antisense e[5mC]*eA*e[5mC]*eA*eA*eA*e[5mC]*e[5mC]*eA*eT*eT*eA*eT*eG*eT*eG*e[5mC]*eT*eG*e[5mC]*eT*eA) [compound 327951]	–	–	60.9%	14.3%	24.8%	4.3%	16.7%	–
327911 (antisense eG*e[5mC]*eT*eA*e[5mC]*e[5mC]*eT*eG*e[5mC]*eA*e[5mC]*eT*eG*eT*eA*eA*eG*e[5mC]*eA*e[5mC]*eT*eT*eT*eT) [compound 327911]	–	–	49.9%	20%	30.1%	10.9%	16.5%	–
328137 (eG*eT*eA*eA*eG*e[5mC]*eG*e[5mC]*eA*eG*e[5mC]*eT*e[5mC]*e[5mC]*eA*e[5mC]*eA*eG*eG*e[5mC]*eT; anti-miR) [compound 328137]	213 % UTC	12 % UTC	–	–	–	–	–	–
328133 (eT*eG*eA*eA*eG*eG*eT*eT*e[5mC]*eG*eG*eA*eG*eA*eT*eA*eG*eG*e[5mC]*eT*eA; anti-miR) [compound 328133]	165 % UTC	62 % UTC	–	–	–	–	–	–
328117 (antisense eT*e[5mC]*e[5mC]*eA*e[5mC]*eA*eA*eA*eG*e[5mC]*eT*eG*eA*eA*e[5mC]*eA*eT*eG*eT*e[5mC]*eT) [compound 328117]	162 % UTC	72 % UTC	–	–	–	–	–	–
327902 (antisense eG*eG*e[5mC]*eT*eG*eT*e[5mC]*eA*eA*eT*eT*e[5mC]*eA*eT*eA*eG*eG*eT*e[5mC]*eA*eG) [compound 327902]	–	–	50.7%	15.3%	33.9%	10.6%	13.4%	–
327920 (antisense eG*eA*eG*eA*e[5mC]*e[5mC]*e[5mC]*eA*eG*eT*eA*eG*e[5mC]*e[5mC]*eA*eG*eA*eT*eG*eT*eA*eG*e[5mC]*eT) [compound 327920]	171 % UTC	68 % UTC	–	–	–	–	–	–
327917 (antisense eT*e[5mC]*eA*eA*e[5mC]*eA*eT*e[5mC]*eA*eG*eT*e[5mC]*eT*eG*eA*eT*eA*eA*eG*e[5mC]*eT*eA) [compound 327917]	225 % UTC	35 % UTC	–	–	–	–	–	–
327921 (antisense e[5mC]*eT*eT*e[5mC]*e[5mC]*eA*eG*eT*e[5mC]*eG*eG*eG*eG*eA*eT*eG*eT*eT*eT*eA*e[5mC]*eA) [compound 327921]	325 % UTC	24 % UTC	–	–	–	–	–	IL-12 mRNA expression, % UTC ([1]; 75 nM, +IFN): 14 % UTC; IL-12 mRNA expression, % UTC ([1]; 75 nM, −IFN): 109 % UTC; IL-12 mRNA expression, % UTC ([1]; 150 nM, +IFN): 7 % UTC; IL-12 mRNA expression, % UTC ([1]; 150 nM, −IFN): 88 % UTC; IL-12 mRNA expression, % UTC ([1]; 300 nM, +IFN): 5 % UTC; IL-12 mRNA expression, % UTC ([1]; 300 nM, −IFN): 67 % UTC; IL-12 mRNA expression, % UTC ([1]; 600 nM, +IFN): 5 % UTC; IL-12 mRNA expression, % UTC ([1]; 600 nM, −IFN): 53 % UTC
327878 (antisense e[5mC]*eT*eA*eG*eT*eG*eG*eT*e[5mC]*e[5mC]*eT*eA*eA*eA*e[5mC]*eA*eT*eT*eT*e[5mC]*eA*e[5mC]) [compound 327878]	–	–	39.1%	20%	40.8%	17.3%	11.9%	–
327907 (antisense eA*eG*e[5mC]*e[5mC]*eT*eA*eT*e[5mC]*e[5mC]*eT*eG*eG*eA*eT*eT*eA*e[5mC]*eT*eT*eG*eA*eA) [compound 327907]	–	–	49.5%	17.6%	32.8%	17.8%	17.8%	–
328382 (e[5mC]*eA*eG*eA*e[5mC]*dT*d[5mC]*d[5mC]*d[5mC]*dA*dA*d[5mC]*dT*dG*dA*e[5mC]*e[5mC]*eA*eG*eA) [compound 328382]	–	–	59.8%	14.4%	25.7%	2.9%	14.8%	–
328691 (e[5mC]*e[5mC]*e[5mC]*e[5mC]*eA*dT*d[5mC]*dT*dT*dA*dG*d[5mC]*dA*dT*d[5mC]*eT*eA*eA*eG*eG) [compound 328691]	–	–	60.5%	15.1%	24.4%	7.7%	16.6%	–
